# According to patent US20220160488A1, “FUNCTIONALIZED PROSTHETIC INTERFACES FOR THE PREVENTION AND TREATMENT OF DENTAL CONDITIONS” (OPTIMED TECHNOLOGY, INC., priority 2019, published 2022):
# Tested on: candida cultures
# Experiment: Heat-treated AmB placed on candida cultures, cleared zone
# Assay type: cell-based, Candida albicans
# Details: heat-treated at various temperatures, examined after 24 h; n=2
# Description: FIG. 4 illustrates Candida albicans biomass assay: The antifungal properties of 3D printed PCL-PMMA was examined in a biomass assay a. To assess antifungal effects, 3D printed 1, 5 and 10 layered sample were incubated with C. albicans for 48 h and dry weight of their biofilm biomass was assessed. n=3, *p<0.05, T test. b. Electron microscopy of 1 (left), 5 (middle) and 10 (right) layered AmB containing PCL microspheres incorporated PMMA disc. c. AmB was heat-treated at various temperatures and placed on candida cultures and examined after 24 h for efficacy (left panel). Digital images were captured and the cleared zone was quantitated (right panel) n=2, *p<0.05, T test.
smiles,measurement,value
"C[C@@H]1[C@H](O)[C@@H](C)/C=C/C=C/C=C/C=C/C=C/C=C/C=C/[C@H](O[C@@H]2O[C@H](C)[C@@H](O)[C@H](N)[C@@H]2O)C[C@@H]2O[C@](O)(C[C@@H](O)C[C@@H](O)[C@H](O)CC[C@@H](O)C[C@@H](O)CC(=O)O[C@H]1C)C[C@H](O)[C@H]2C(=O)O [AmB, Amphotericin B]",anti-fungal effects after direct heat treatment,reduced anti-fungal effects
